Columns and labels:
PARP-1 = PARP-1 (Homo sapiens, UniProt P09874); test: PARP-1 activity in a cell-free system with oxysterol-pretreated DNA; type: biochemical
Protocol: FIGS. 4A-D show the results of activation of microglia, macrophages and astrocytes by 15-HC. 4A, a bar graph showing PARP-1 activity in a cell-free system where recombinant PARP-1 was incubated with DNA which as been pretreated with 15-HC or 7-KC. Non-pretreated DNA was used as a negative control and ssb-DNA as a positive control. Data is shown as Mean±SEM. 4B, a pair of bar graphs showing PARP-1 activity measured in microglia, macrophages or astrocytes incubated with 15-HC or 7-KC. The data is shown as the fold of change between vehicle and lipid-treated cells (Mean±SEM). 4C, a pair of bar graphs showing percent inhibition of PARP-1 activity in microglia, macrophages or astrocytes activated with 15-HC or 7-KC […] in the presence of 5-AIQ. 4D, a table showing levels of TNF-α, CCL-2 and NO secretion by 15-HC or 7-KC treated microglia, macrophages or astrocytes (Mean±SEM).
Thus, the effect of 15-HC on PARP-1 activity was investigated using an in vitro system.

[1] = tested on: TLR signaling proteins (TAK1, IRAK, Akt, p38-MAPK, PyK2, PKC, PI3K, ERK1/2); test: Reverse protein arrays / western blot of signaling after 15-HC; type: cell-based, mouse; settings: microglia or macrophage cells, 1 μg/ml 15-HC
Protocol: 5A, a bar graph showing the time course of microglial PARP-1 activation by 15-oxysterols or 7-KC. PARP-1 activity is shown as Mean±SEM. 5B, a set of eight bar graphs showing signaling pathways activated by 15-HC. Microglial cells were stimulated with 15-HC and lysed at 1, 5, and 15 minutes. Signal transduction arrays were made with the lysates and probed with phospho-specific antibodies. 15a-HC increases the phosphorylation of TAK1 (top right), IRAK (top left), Akt (second row, left), p38 MAPK (second row, right), Pyk2 (third row, left), PKC (third row, right), PI3K (bottom row, left), and Erk1/2 (bottom row, right). (Mean±SEM) 5C, a bar graph showing activation of microglial PARP-1 by 15-HC in the presence of kinase inhibitors (Mean±SEM). […]
FIG. 8 is a set of eight pairs of bolts and bar graphs showing blockade of 15-HC triggered signaling pathways with blocking antibodies to TLR2. Microglial cells were incubated with […] of TLR2 blocking antibody or isotype control 45 minutes prior the addition of 15-HC to the medium and signal transduction events were analyzed by western blot. […]
The C8B4 microglial cell line, C8-D1A astrocytes and Raw 264.7 macrophages were purchased from ATCC (Manassas, Va., USA). […] Slides were then probed, processed and analyzed as previously described (Chan et al., Nat Med 10, 1390-1396 (2004)).

Erk / PARP-1 interaction = test: Co-immunoprecipitation of ERK and PARP-1; type: cell-based, mouse; settings: microglia and macrophages activated with 15-HC
Protocol: 5A, a bar graph showing the time course of microglial PARP-1 activation by 15-oxysterols or 7-KC. PARP-1 activity is shown as Mean±SEM. 5B, a set of eight bar graphs showing signaling pathways activated by 15-HC. Microglial cells were stimulated with 15-HC and lysed at 1, 5, and 15 minutes. Signal transduction arrays were made with the lysates and probed with phospho-specific antibodies. 15a-HC increases the phosphorylation of TAK1 (top right), IRAK (top left), Akt (second row, left), p38 MAPK (second row, right), Pyk2 (third row, left), PKC (third row, right), PI3K (bottom row, left), and Erk1/2 (bottom row, right). (Mean±SEM) 5C, a bar graph showing activation of microglial PARP-1 by 15-HC in the presence of kinase inhibitors (Mean±SEM). 5D, an immunoblot and a bar graph showing the results of co-immunoprecipitaiton of ERK and PARP-1. Microglial cells were treated with 15-HC, lysed, immunoprecipitated with antibodies to phosphorylated Erk and then the pulled down material was probed with antibodies to PARP-1.
Thus, co-immunoprecipitation studies were carried out to better characterize the mechanisms by which 15-HC activates PARP-1. Microglia and macrophages were activated with 15-HC, ERK-specific antibodies were used for immunoprecipitation, and the pulled down material was probed with antibodies to PARP-1.

TLR2 = test: PARP-1 activity in HEK-293 cells transfected or not with TLR2; type: cell-based, human
Excerpt: FIGS. 6A-B are bar graphs showing that PARP-1 activation by 15-HC is mediated by TLR2 A. TLR2 blocking antibody abrogates PARP-1 activation by 15a-HC. 6A, a set of three bar graphs showing PARP-1 activity in microglia, macrophages or astrocytes activated with 15-HC in the presence of blocking antibodies to TLR2 or TLR4, or isotype controls (Mean±SEM). 6B, a bar graph showing PARP-1 activity in HEK-293 cells transfected or not with a plasmid coding for TLR2 and activated with 15-HC (Mean±SEM).

human monocytes = test: TNFa and CCL2 production by human monocytes; type: cell-based; settings: 1 ug/ml 15-HC
Protocol: FIGS. 10A and 10B are bar graphs showing TLR2 mediated activation of PARP-1 by 15-HC. PARP-1 enzymatic activity (10A) and TNFalpha and CCL2 (10B) of PBMCs incubated with 15-HC alone, or in combination with AIQ, blocking antibodies to TLR2 or IC control.
To investigate whether the TLR2/PARP-1 axis is functional in human we activated PBMCs from healthy controls with 15-HC, in the presence or not of PARP-1 or TLR2 inhibitors. […] Thus, 15-HC activates PARP-1 in human monocytes by a TLR2 dependent pathway that results in the release of the pro-inflammatory mediators TNFa and CCL2.

PARP-1, sequence (P09874 whole entry, species assumed): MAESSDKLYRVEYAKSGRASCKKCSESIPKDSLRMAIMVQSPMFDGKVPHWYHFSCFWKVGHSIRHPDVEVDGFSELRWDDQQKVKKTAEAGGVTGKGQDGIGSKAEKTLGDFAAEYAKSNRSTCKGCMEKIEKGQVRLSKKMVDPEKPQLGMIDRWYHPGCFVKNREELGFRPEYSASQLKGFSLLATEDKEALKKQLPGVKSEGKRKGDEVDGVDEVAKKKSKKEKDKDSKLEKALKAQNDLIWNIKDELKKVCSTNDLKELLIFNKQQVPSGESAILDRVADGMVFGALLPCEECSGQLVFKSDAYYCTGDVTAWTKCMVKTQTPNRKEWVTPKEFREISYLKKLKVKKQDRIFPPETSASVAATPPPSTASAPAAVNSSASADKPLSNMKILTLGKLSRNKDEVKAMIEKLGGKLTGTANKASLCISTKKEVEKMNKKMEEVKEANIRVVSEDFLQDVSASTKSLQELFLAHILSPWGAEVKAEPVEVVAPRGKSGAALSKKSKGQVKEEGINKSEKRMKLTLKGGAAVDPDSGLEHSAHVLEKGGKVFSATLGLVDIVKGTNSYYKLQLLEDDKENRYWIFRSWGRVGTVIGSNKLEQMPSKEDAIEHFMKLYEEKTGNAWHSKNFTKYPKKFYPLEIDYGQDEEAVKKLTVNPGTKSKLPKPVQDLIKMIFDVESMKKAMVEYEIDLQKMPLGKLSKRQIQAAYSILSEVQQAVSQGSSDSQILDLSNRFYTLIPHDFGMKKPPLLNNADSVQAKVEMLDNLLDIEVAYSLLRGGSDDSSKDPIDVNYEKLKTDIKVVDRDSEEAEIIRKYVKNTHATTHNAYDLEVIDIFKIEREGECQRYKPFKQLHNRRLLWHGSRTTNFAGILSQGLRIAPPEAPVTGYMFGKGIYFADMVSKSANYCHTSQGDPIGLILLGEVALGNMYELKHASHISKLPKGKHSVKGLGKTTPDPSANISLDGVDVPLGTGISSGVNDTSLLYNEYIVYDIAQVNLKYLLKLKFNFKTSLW

For 15-hydroxycholestene [15-HC], the “PARP-1 activity, oxysterol alone” value (PARP-1; recombinant PARP-1 incubated with 15-HC alone) was “did not have a significant effect”, the “PARP-1 activity, DNA pre-incubated with oxysterol” value (PARP-1; recombinant PARP-1 plus DNA pretreated with 15-HC) was “levels comparable to those achieved with 7-KC or single strand break DNA” and the “phosphorylation of TAK1, IRAK, Akt, p38-MAPK, PyK2, PKC, PI3K and ERK1/2” value [1] was “resulted in the phosphorylation”. For the same substance, the “interaction of Erk with PARP-1” value (Erk / PARP-1 interaction) was “significant interaction”, the “PARP-1 activity in HEK-293 cells transfected with TLR2” value (TLR2; transfected with a plasmid coding for TLR2) was “significant activation” and the “PARP-1 activity in HEK-293 cells” value (TLR2; untransfected, does not express TLR2) was “no significant effect”. For the same substance, the “production of TNFa and CCL2” value (human monocytes) was “resulted in production”.

Source: US20140343095A1, “Methods of Diagnosing and Treating Multiple Sclerosis” (The Brigham and Women's Hospital, Inc., priority 2009, published 2014)
